Reference: US20130072459A1, “PHARMACEUTICAL COMPOSITION FOR THE PREVENTION OR THE TREATMENT OF NON-ALCOHOLIC FATTY LIVER DISEASE AND THE METHOD FOR PREVENTION OR TREATMENT OF NON-ALCOHOLIC FATTY LIVER DISEASE USING THE SAME” (priority 2010, published 2013)

Experiments:
[1] = tested on: high fat diet-induced simple steatosis; experiment: Therapeutic effects on high fat diet-induced simple steatosis in rats; assay type: in vivo, Wistar rats
Method: 6-week old male rats (Wistar rats) were stabilized and then divided into 2 groups. Animal groups were respectively given a standard diet containing 10% fat (trade name: D12450B, manufactured by Research Diets) and a high fat diet containing 60% fat (trade name: D12492, manufactured by Research Diets) for 24 weeks. […] In order to supply 10 mg/kg which is a daily target dose of tartrate of Compound 1, a diet was formulated by mixing a high fat diet and 0.03% by weight of tartrate of Compound 1. 24 weeks after a supply of each diet, animals were divided into a high fat diet-fed group (n=8), a group fed with a high fat diet+0.03% by weight of tartrate of Compound 1 (n=8), and a standard diet-fed group (n=8), followed by feeding for another 14 weeks. Then, animals were dissected and sera were separated. Then, serum ALT levels (alanine aminotransferase), GPT, (glutamic pyruvate transaminase) were measured using a blood analyzer (FIG. 4). The excised liver was homogenized in a 5(v/v) % Triton-X solution, and a triglyceride working reagent [which was prepared by mixing a free glycerol reagent (F6428, Sigma) and a triglyceride reagent (T2449, Sigma) in a ratio of 4:1(v/v)] was added thereto, followed by measurement of an absorbance at 540 nm to determine the content of triglyceride (FIG. 5). In addition, in order to observe histological fat distribution, a portion of the excised liver was fixed in a 10(v/v) % formalin solution and then a tissue sample was prepared, followed by hematoxylin & eosin(HE) staining and photographing using an image analysis program (computerized image analysis) (FIG. 6, the violet-stained portion represents a normal liver tissue, and white portion represents lipid droplets). Thereafter, an area of lipid droplets/unit area of a sample was calculated (FIG. 7).

[2] = tested on: high fat diet-induced simple steatosis; experiment: Non-alcoholic fatty liver-preventing effects on high fat diet-induced simple steatosis in mice (oral, 28 days); assay type: in vivo, C57BL/6 mice; details: for Triglyceride increase inhibition (%) relative to high fat diet-fed group / Triglyceride increment (%) relative to standard diet-fed group: 28 days, high fat diet; for lipid droplets in liver tissue sample (histological evaluation), result in words: HE staining, FIG. 8; for maximum decrement of the hepatic triglyceride content relative to the high fat diet-fed group: maximum over the doses tested
Method: 7-week old male C57BL/6 mice were stabilized and then divided into 9 groups (n=9) according to the body weight and blood glucose level. A standard diet-fed group and a high fat diet-fed group were orally administered a vehicle solution (0.5% MC (methylene cellulose)) of each diet once a day at a dose of 10 ml/kg, and the remaining groups were orally given once a day for 28 days a high fat diet in conjunction with tartrate of Compound 1 at doses of 30, 100 and 300 mg/kg, sitagliptin phosphate at doses of 100 and 300 mg/kg, and vildagliptin at doses of 100 mg/kg and 300 mg/kg, respectively, according to the designated groups. 24 hours after the final oral administration, animals were dissected and the excised liver was homogenized in a 5(v/v) % Triton-X solution to which a triglyceride working reagent was then added, followed by measurement of an absorbance at 540 nm to determine the content of triglyceride (Table 2). In addition, a portion of the excised liver was fixed in a 10(v/v) % formalin solution and then a tissue sample was prepared, followed by hematoxylin & eosin(HE) staining and photographing (FIG. 8).

[3] = tested on: activated hepatic stellate cells; experiment: Expression of activity indicator proteins (TGFβ1, α-SMA) in activated hepatic stellate cells, Western blot; assay type: cell-based, rat (Wistar); details: for 1 ng/mL TGFβ1-induced protein expression inhibition rate, TGFβ1 / 1 ng/mL TGFβ1-induced protein expression inhibition rate, α-SMA: 100 μM compound, 7 days, N = 3, corrected by β-actin; for protein expression levels of TGFβ1 and α-SMA, result in words: hTGF-β1-activated rat hepatic stellate cells
Method: An inhibitory action of the compounds of the present invention on the activation of hepatic stellate cells was tested according to the following cell culture method. Male rats (Wistar rats), weighing 500 to 700 g, were anesthetized, followed by an abdominal incision, and cannulae were connected to hepatic portal veins, followed by sequential perfusion with a Hank's Balanced Salt Solution (HBSS) containing heparin and an HBSS containing type 1 collagenase. After the perfusion was complete, the liver was excised, ground with surgical scissors, and added to an HBSS containing type 1 collagenase, followed by shaking culture at 37° C. for 15 minutes. The completely ground liquid-state liver tissue was passed through gauze and centrifuged at 500 g for 10 minutes. The resulting mingled cell precipitate was washed with a phosphate buffer, followed by centrifugation at 100 g for 5 minutes, and the supernatant was collected. The supernatant was further centrifuged at 500 g for 10 minutes to obtain a precipitate to which a 9:1 (v/v) mixture of a Ficoll liquid (GE Healthcare) and a Percoll liquid (GE Healthcare) was added, followed by mixing. A phosphate buffer was gently placed on the mixed layer, followed by centrifugation at 1,400 g for 15 minutes. Then, the cell layer formed between the upper layer and the lower layer was recovered and washed once with a Dulbecco's Modified Eagle Medium (DMEM) containing 10(v/v) % fetal bovine serum. The resulting cells were added at a cell density of 3.1×10^5 cells/cm^2, the medium was exchanged with a fresh medium after 24 hours, and cultured for 7 days with exchange of the medium at intervals of 2 to 3 days. Then, the drugs were treated at specified concentrations in a medium containing 1 ng/ml of a human transforming growth factor (TGF) β1 and a medium containing no TGF β1. TGF β1 was dissolved in dimethylsulfoxide (DMSO) to a concentration 1.000-fold higher than the desired treatment concentration of the drug, 1.000-fold diluted in a medium to be a 1-fold (1×) volume, and then treated on cells. After 7 days of the drug treatment, the medium was harvested and washed with a phosphate buffer. A buffer containing a surfactant was added thereto and the cells were lysed. Then, proteins were quantified, electrophoresed on a 4-12% Bis-Tris gel (Invitrogen), and transferred to a nitrocellulose membrane. The transferred proteins were reacted with primary antibodies specific for α-smooth muscle actin (α-SMA) or TGFβ1, and then reacted with horse radish peroxidase-conjugated specific secondary antibodies. The expression level of the target protein was confirmed using a chemiluminescent liquid and corrected in terms of actin (β-actin) expression level (FIG. 9). The decrement of observed protein expression by 100 μM of individual compounds of the present invention was expressed as a percentage drug-induced decrement, based an increment of protein expression in the TGFβ1-treated positive control group relative to the negative control group to which only DMSO was added (Table 3).

[4] = tested on: ob/ob mice; experiment: Plasma alanine aminotransferase in obesity animal model ob/ob mice; assay type: in vivo; details: 4 weeks; for plasma alanine aminotransferase, result in words: ob/ob mice
Method: 5-week old male C57BL/6 mice (normal mouse group) and ob/ob mice (obesity mouse group) were stabilized and then divided into 6 groups according to the body weight and blood glucose level, followed by feeding with a standard diet and a drug-mixed diet. […] Therefore, in order to supply 10, 100 and 300 mg/kg which are daily target doses of tartrate of Compound 1, diets were formulated by mixing a standard diet with 0.01% by weight, 0.1% by weight and 0.3% by weight of tartrate of Compound 1 and 0.3% by weight of sitagliptin phosphate, respectively. 4 weeks after a supply of diets, animals were dissected and sera were separated. Plasma alanine aminotransferase levels were measured using a blood analyzer (Table 6).

[5] = high fat diet + 0.03% drug for 14 weeks, vs high fat diet-fed group
[6] = standard diet with 0.01% drug (target 10 mg/kg/day)
[7] = standard diet with 0.1% drug (target 100 mg/kg/day)
[8] = standard diet with 0.3% drug (target 300 mg/kg/day)

Row | SMILES | Triglyceride increase inhibition (%) relative to high fat diet-fed group ([2]; 100 mg/kg oral once a day) | Triglyceride increment (%) relative to standard diet-fed group ([2]; 100 mg/kg oral once a day) | Triglyceride increase inhibition (%) relative to high fat diet-fed group ([2]; 300 mg/kg oral once a day) | Triglyceride increment (%) relative to standard diet-fed group ([2]; 300 mg/kg oral once a day) | lipid droplets in liver tissue sample (histological evaluation), result in words [2] | maximum decrement of the hepatic triglyceride content relative to the high fat diet-fed group [2] | 1 ng/mL TGFβ1-induced protein expression inhibition rate, TGFβ1 [3] | 1 ng/mL TGFβ1-induced protein expression inhibition rate, α-SMA [3] | protein expression levels of TGFβ1 and α-SMA, result in words [3] | plasma alanine aminotransferase, result in words [4] | ALT increase inhibition (%) relative to ob/ob mouse control group [4, 8] | ALT increment (%) relative to normal mouse group [4, 8] | other results
1 | CC(C)(C)OC[C@@H]1C(=O)NCCN1C(=O)C[C@H](N)Cc1cc(F)c(F)cc1F [tartrate of Compound 1, (R)-4-[(R)-3-amino-4-(2,4,5-trifluorophenyl)-butanoyl]-3-(t-butoxymethyl)piperazin-2-one] | 12% | 47% | 81% | 11% | reduction of lipid droplets | 81% | 78 ± 17.2% | 25 ± 1.9% | lowered | reduction | 27% | 757% | serum alanine aminotransferase (ALT), result in words ([1]; high fat diet 24 weeks then high fat diet + 0.03% drug (target 10 mg/kg/day) for 14 weeks): significant decrease; hepatic triglyceride content in hepatic triglyceride analysis, result in words [1, 5]: significant decrease; hepatic triglyceride content in histological analysis (area of lipid droplets/unit area), result in words [1, 5]: significant decrease; Triglyceride increase inhibition (%) relative to high fat diet-fed group ([2]; 30 mg/kg oral once a day): 34%; Triglyceride increment (%) relative to standard diet-fed group ([2]; 30 mg/kg oral once a day): 35%; concentration dependence of protein expression decrement of TGFβ1 and α-SMA, result in words ([3]; FIG. 9): increased with a higher concentration; ALT increase inhibition (%) relative to ob/ob mouse control group [4, 6]: 43%; ALT increment (%) relative to normal mouse group [4, 6]: 610%; ALT increase inhibition (%) relative to ob/ob mouse control group [4, 7]: 39%; ALT increment (%) relative to normal mouse group [4, 7]: 653%
2 | N[C@@H](CC(=O)N1CCn2c(nnc2C(F)(F)F)C1)Cc1cc(F)c(F)cc1F [sitagliptin phosphate, sitagliptin] | 61% | 21% | 15% | 45% | reduction of lipid droplets | 61% | −6 ± 51.9% | 46 ± 7.3% | lowered | reduction | 15% | 869% | –
